According to patent US20260193283A1, “CARBOXAMIDE DERIVATIVE HAVING RSK INHIBITORY EFFECT, PHARMACEUTICAL COMPOSITION COMPRISING SAME, AND USE THEREOF” (KINOTECK THERAPEUTICS CO., LTD., priority 2022, published 2026):

Assays:
RSK2 kinase = target: T1, RSK2 kinase (Homo sapiens, UniProt P51812); experiment: HTRF KinEASE-STK assay of RSK2 kinase inhibition in vitro; assay type: biochemical; details: 0.18 nM RSK2 recombinase, 10 μM ATP, read-out: IC50, in vitro inhibitory activity on RSK2 kinase
T1 construct: purchased Carna 01-150
Protocol: The inhibitory effect of small molecule compounds on RSK2 kinase was detected using HTRF KinEASE-STK assay. […] Specifically, firstly, 2.5×RSK2 recombinase and 5×inhibitor were added to a buffer system in a 384 well plate, and incubated at room temperature for 10 minutes, negative control wells without enzyme and positive control wells without compounds were set at the same time, then, 2.5×peptide substrate and ATP were added, and then the reaction began.

MDA-MB-453 cells = experiment: Triple negative breast cancer cell proliferation inhibition (CCK-8, 5 days); assay type: cell-based; details: Homo sapiens, 120 h, 5 days incubation, read-out: IC50, proliferation inhibitory activity on MDA-MB-453
Protocol: The compound or vehicle control (DMSO) was diluted in culture medium in a 96 well plate, with the final concentrations of 50, 25, 12.5, 6.25, 3.13, 1.56, 0.78, 0.39, 0.2, and 0.1 μM. 1×10^3 MDA-MB-453 cells were inoculated into each well, and the plate was incubated in the incubator for 5 days. After the incubation period, cell survival was quantified using Cell Counting Kit-8 (CCK-8) reagent. In short, the cells were incubated with CCK8 for 2-4 hours, and then the absorbance at 450 nm and 650 nm was measured. CCK-8 is WST-8 (chemical name: 2-(2-methoxy-4-nitrophenyl)-3-(4-nitrophenyl)-5-(2,4-disulfonate benzene)-2H tetrazole monosodium salt), which is reduced to a highly water-soluble yellow formazan dye by dehydrogenases in cells under the action of electron carrier 1-methoxy-5-methylphenazinium sulfate dimethyl ester (1-Methoxy PMS). The number of generated formazan dye substances is directly proportional to the number of live cells, so this characteristic can be used to calculate the survival percentage, as shown in the following equation:
[formula] • As: experimental well (the treatment wells containing cells, different concentrations of drug) • Ab: solvent control well (solvent treatment wells containing cells, 0 concentration of drug) • Ac: blank well (well without cells and drugs)
The cell survival rate data and corresponding compound concentrations were input into GraphPad Prism software to fit and calculate IC50 values.

[1] = Pharmacokinetic study in mice; assay type: in vivo; details: mouse; male ICR mice, oral gavage administration, 10 mg/kg, plasma
Protocol: Pharmacokinetic experiments in mice were conducted using male ICR mice weighed 20-25 g, provided by the Experimental Animal Management Department of Shanghai Family Planning Scientific Research Institute. 3 mice were taken and fasted overnight, and then administered orally by gavage (10 mg/kg). Blood samples were collected before administration, at 15 and 30 minutes as well as 1, 2, 4, 8, and 24 hours after administration; in addition, another 3 mice were taken and administered intravenously (1 mg/kg), and blood samples were collected before administration, at 15 and 30 minutes as well as 1, 2, 4, 8, and 24 hours after administration. blood sample was centrifuged at 6800 g, 2-8° C. for 6 minutes, and then the plasma was collected and stored at −80° C. Plasma at each time point were added 10-20 times the amount of methanol or acetonitrile solution containing internal standard, and mixed by vortex for 1 minute, centrifuged at 18000 rpm at 4° C. for 10 minutes, and then the supernatant was taken to analyze by LC-MS/MS directly. The main pharmacokinetic parameters were analyzed using WinNonlin 7.0 software for non compartmental model analysis.

T1 sequence (P51812 whole entry): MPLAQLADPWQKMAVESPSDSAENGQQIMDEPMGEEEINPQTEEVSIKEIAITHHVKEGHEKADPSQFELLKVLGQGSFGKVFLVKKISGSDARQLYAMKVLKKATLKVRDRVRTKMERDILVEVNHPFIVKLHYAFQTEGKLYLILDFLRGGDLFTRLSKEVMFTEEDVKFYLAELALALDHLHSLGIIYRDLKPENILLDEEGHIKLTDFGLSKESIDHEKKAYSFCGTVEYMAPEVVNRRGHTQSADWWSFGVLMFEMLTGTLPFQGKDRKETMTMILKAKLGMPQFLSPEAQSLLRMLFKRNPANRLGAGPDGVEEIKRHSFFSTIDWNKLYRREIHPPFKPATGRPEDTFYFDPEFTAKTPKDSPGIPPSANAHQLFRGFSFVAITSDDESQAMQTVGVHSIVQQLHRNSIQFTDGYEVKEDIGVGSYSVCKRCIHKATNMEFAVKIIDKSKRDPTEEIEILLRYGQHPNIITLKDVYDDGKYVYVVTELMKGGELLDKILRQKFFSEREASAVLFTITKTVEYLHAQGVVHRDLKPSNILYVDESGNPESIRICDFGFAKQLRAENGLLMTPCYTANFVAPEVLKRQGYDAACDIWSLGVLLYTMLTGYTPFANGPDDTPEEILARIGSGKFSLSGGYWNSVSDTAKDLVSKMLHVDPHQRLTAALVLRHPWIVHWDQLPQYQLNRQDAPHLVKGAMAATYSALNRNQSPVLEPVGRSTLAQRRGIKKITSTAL

SMILES | IC50 (RSK2 kinase) | other results
C[C@@H]1CNC(=O)c2cc3ccc(C(=O)Nc4cnn(Cc5ccc(P(C)(C)=O)cc5)c4)nc3n21 [Compound 1, (R)—N-(1-(4-(dimethylphosphoryl)benzyl)-1H-pyrazol-4-yl)-9-methyl-6-oxo-6,7,8,9-tetrahydropyridino[3′, 2′: 4,5]pyrrolo [1,2-a]pyrazine-2-carboxamide] | 0.44 nM | 
C[C@@H]1CNC(=O)c2cc3ccc(C(=O)Nc4cnn(Cc5ccc(N=S(C)(C)=O)cc5)c4)nc3n21 [Compound 2, (R)—N-(1-(4-((dimethyl (oxo)-λ^6-sulfanylidene)amino)benzyl)-1H-pyrazol-4-yl)-9-methyl-6-oxo-6,7,8,9-tetrahydropyridino [3′,2′: 4,5]pyrrolo [1,2-a]pyrazine-2-carboxamide] | 0.31 nM | 
C[C@@H]1CNC(=O)c2cc3ccc(C(=O)Nc4cnn(Cc5ccc(S(C)(=N)=O)cc5)c4)nc3n21 (some centres unmarked) [Compound 3] | 0.24 nM | 
C[C@@H]1CNC(=O)c2cc3ccc(C(=O)Nc4cnn(Cc5ccnc(C(C)(C)O)c5)c4)nc3n21 [Compound 4] | 0.42 nM | IC50 (MDA-MB-453 cells): 2660 nM
C[C@@H]1CNC(=O)c2cc3ccc(C(=O)Nc4cnn(Cc5ccc(C(C)(C)O)nc5)c4)nc3n21 [Compound 5] | 0.35 nM | IC50 (MDA-MB-453 cells): 2040 nM; AUC(0-t) [1]: 35100 ng·h/mL; Cmax [1]: 17900 ng/mL; Tmax [1]: 15 min; half-life [1]: 94.2 min
C[C@@H]1CNC(=O)c2cc3cc(F)c(NC(=O)c4cnn(Cc5ccc(N)cc5)c4)nc3n21 [Compound 6, (R)-1-(4-aminobenzyl)-N-(3-fluoro-9-methyl-6-oxo-6,7,8,9-tetrahydropyridino [3′, 2″: 4,5]pyrrolo [1,2-a]pyrazin-2-yl)-1H-pyrazole-4-carboxamide] | 175 nM | 
C[C@@H]1CNC(=O)c2cc3ccc(C(=O)Nc4cnn(Cc5ccc(N)cc5)c4)c(F)c3n21 [Compound 7, (R)—N-(1-(4-aminobenzyl)-1H-pyrazol-4-yl)-6-fluoro-4-methyl-1-oxo-1,2,3,4-tetrahydropyrazino [1,2-a]indole-7-carboxamide] | 99.9 nM | 
CC(c1ccc(C(C)(C)O)nc1)n1cc(NC(=O)c2ccc3cc4n(c3n2)[C@H](C)CNC4=O)cn1 (stereo partly drawn) [Compound 8, (9R)—N-(1-(1-(6-(2-hydroxyprop-2-yl)pyridin-3-yl)ethyl)-1H-pyrazol-4-yl)-9-methyl-6-oxo-6,7,8,9-tetrahydropyridino [3′, 2′: 4,5]pyrrolo [1,2-a]pyrazine-2-carboxamide] | 0.8 nM | IC50 (MDA-MB-453 cells): 5610 nM
Cc1cc(NC(=O)c2ccc3cc4n(c3n2)[C@H](C)CNC4=O)nn1Cc1ccc(C(C)(C)O)nc1 [Compound 9] | 43 nM | 
C[C@@H]1CNC(=O)c2cc3ccc(C(=O)Nc4cnn(Cc5ccc(C6(O)CC6)nc5)c4)nc3n21 [Compound 10] | 0.11 nM | 
C[C@@H]1CNC(=O)c2cc3ccc(C(=O)Nc4cnn(Cc5ccc(C6(O)CCC6)nc5)c4)nc3n21 [Compound 11] | 0.29 nM | 
C[C@@H]1NC(=O)c2cc3ccc(C(=O)Nc4cnn(Cc5ccc(C(C)(C)O)nc5)c4)nc3n2[C@@H]1C [Compound 12] | 0.43 nM | 
C[C@@H]1CNC(=O)c2cc3ccc(C(=O)Nc4cnn(Cc5ccc(C(C)(C)O)nc5)c4)c(F)c3n21 [Compound 13] | 5.43 nM | 
C[C@H]1Cn2c(cc3ccc(C(=O)Nc4cnn(Cc5ccc(C(C)(C)O)nc5)c4)nc32)C(=O)N1 [Compound 14] | 1.58 nM | 
C[C@@H]1CNC(=O)c2cc3ccc(C(=O)Nc4cnn(Cc5cnc(C(C)(C)O)c(F)c5)c4)nc3n21 [Compound 15, (R)—N-(1-((5-fluoro-6-(2-hydroxyprop-2-yl)pyridin-3-yl)methyl)-1H-pyrazol-4-yl)-9-methyl-6-oxo-6,7,8,9-tetrahydropyridino [3, 2′: 4,5]pyrrolo [1,2-a]pyrazine-2-carboxamide] | 0.08 nM | IC50 (MDA-MB-453 cells): 2480 nM; AUC(0-t) [1]: 99300 ng·h/mL; Cmax [1]: 22800 ng/mL; Tmax [1]: 30 min; half-life [1]: 131 min
C[C@@H]1NC(=O)c2cc3ccc(C(=O)Nc4cnn(Cc5cnc(C(C)(C)O)c(F)c5)c4)nc3n2[C@@H]1C [Compound 16, (8S, 9R)—N-(1-((5-fluoro-6-(2-hydroxyprop-2-yl)pyridin-3-yl)methyl)-1H-pyrazol-4-yl)-8,9-dimethyl-6-oxo-6,7,8,9-tetrahydropyridino [3′, 2′: 4,5]pyrrolo [1,2-a]pyrazine-2-carboxamide] | 0.08 nM | 
[2H]C([2H])([2H])C(O)(c1ccc(Cn2cc(NC(=O)c3ccc4cc5n(c4n3)[C@H](C)CNC5=O)cn2)cn1)C([2H])([2H])[2H] [Compound 17] | 0.22 nM | 
C[C@@H]1CNC(=O)c2cc3ccc(C(=O)Nc4cnn(Cc5ccc(N)cc5)c4)nc3n21.Cl [Control Compound II, reference compound] | 1.08 nM | IC50 (MDA-MB-453 cells): 4600 nM; AUC(0-t) [1]: 4610 ng·h/mL; Cmax [1]: 3420 ng/mL; Tmax [1]: 25.2 min; half-life [1]: 49.2 min
